The target of assay [1] is αvβ1 (Homo sapiens, UniProt P05556+P06756). Kind of assay: Solid Phase Integrin αvβ1 Assay. The assay is classed as binding. The protocol:
(§1) The compounds exemplified in this document were tested for their ability to inhibit αvβ1 and αvβ6 in below described solid phase integrin assays.
Solid Phase Integrin αvβ1 Assay
96-well microtiter plates (4 HBX Immulon; Thermo Fisher Scientific, Waltham, MA) were coated with 100 μL/well of 1 μg/mL recombinant TGFb1-LAP in TBS at 4° C., overnight. The coating solution was removed, and plates were blocked with 200 μL/well of blocking and binding buffer (2% BSA/TBST, 1 mM MnCl2) at room temperature for 1 hr. Blocking buffer was removed and 50 μL of binding buffer and testing compounds were added. 50 μL of diluted αvβ1 (0.2 ug/mL in binding buffer) was added to wells (100 μL/well total) for and plates incubated for 90 min at room temperature. Wells were washed thrice with washing buffer (TBS, 0.05% Tween, 1 mM MnCl2) and plates were incubated with 100 μL/well of a 1:12500 dilution of streptavidin-horseradish peroxidase conjugate (Thermo Fisher Scientific) in binding buffer for 20 min at room temperature. Bound protein was detected using the substrate TMB. The IC50 values for testing compounds were calculated by Levenberg-Marquardt four parameter fitting logistics.

For assay [2], the target named is αvβ6 (Homo sapiens, UniProt P06756+P18564). Kind of assay: Solid Phase Integrin αvβ6 Assay. The assay is classed as binding. On the procedure: as §1
αvβ6, sequence (P06756 31-992 limits assumed): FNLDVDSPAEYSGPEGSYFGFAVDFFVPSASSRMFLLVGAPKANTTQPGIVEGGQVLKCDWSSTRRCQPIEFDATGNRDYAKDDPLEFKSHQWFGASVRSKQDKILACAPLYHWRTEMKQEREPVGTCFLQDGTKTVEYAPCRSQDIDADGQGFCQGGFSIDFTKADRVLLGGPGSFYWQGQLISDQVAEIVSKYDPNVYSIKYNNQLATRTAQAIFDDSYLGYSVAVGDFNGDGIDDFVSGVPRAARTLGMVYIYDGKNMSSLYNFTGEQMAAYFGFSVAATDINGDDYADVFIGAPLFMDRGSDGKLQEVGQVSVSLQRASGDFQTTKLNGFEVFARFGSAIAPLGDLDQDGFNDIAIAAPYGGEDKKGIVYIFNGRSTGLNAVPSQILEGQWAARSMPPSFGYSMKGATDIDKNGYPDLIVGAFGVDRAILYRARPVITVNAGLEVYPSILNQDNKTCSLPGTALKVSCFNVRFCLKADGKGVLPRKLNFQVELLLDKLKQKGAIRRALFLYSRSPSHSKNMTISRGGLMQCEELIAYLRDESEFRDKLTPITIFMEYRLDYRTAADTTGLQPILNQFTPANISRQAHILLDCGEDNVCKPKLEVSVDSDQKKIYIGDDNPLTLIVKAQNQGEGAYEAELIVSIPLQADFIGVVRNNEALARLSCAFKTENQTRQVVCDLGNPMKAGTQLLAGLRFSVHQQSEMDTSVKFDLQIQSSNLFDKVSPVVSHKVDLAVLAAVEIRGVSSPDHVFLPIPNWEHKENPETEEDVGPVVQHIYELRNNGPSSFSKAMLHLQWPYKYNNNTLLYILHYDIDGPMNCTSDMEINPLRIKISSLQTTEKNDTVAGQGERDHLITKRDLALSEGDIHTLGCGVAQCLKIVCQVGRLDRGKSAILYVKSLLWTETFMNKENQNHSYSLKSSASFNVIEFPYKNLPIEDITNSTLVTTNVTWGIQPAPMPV
αvβ6, sequence (P18564 22-707 limits assumed): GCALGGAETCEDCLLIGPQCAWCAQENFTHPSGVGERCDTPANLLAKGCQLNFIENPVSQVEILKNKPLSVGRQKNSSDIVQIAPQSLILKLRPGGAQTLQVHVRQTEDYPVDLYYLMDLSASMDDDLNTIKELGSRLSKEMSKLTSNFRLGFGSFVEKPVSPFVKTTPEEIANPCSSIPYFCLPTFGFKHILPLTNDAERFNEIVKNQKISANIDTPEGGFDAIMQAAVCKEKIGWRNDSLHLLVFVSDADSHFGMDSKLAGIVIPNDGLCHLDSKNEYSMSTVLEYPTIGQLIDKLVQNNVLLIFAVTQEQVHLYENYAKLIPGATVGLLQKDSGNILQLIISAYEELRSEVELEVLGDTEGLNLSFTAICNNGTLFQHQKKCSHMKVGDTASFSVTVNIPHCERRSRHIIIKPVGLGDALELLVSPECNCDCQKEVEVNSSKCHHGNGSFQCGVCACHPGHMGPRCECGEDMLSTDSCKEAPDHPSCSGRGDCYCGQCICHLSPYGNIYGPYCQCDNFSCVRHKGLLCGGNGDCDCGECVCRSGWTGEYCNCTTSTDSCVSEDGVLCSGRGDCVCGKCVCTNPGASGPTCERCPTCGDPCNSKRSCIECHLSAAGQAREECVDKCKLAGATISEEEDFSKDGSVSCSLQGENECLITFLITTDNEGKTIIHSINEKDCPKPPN
Solid Phase Integrin αvβ6 Assay
96-well microtiter plates (4 HBX Immulon; Thermo Fisher Scientific, Waltham, MA) were coated with 100 μL/well of 1 μg/mL recombinant TGFb1-LAP in TBS at 4° C., overnight. The coating solution was removed, and plates were blocked with 200 μL/well of blocking and binding buffer (2% BSA/TBST, 1 mM MnCl2) at room temperature for 1 hr. Blocking buffer was removed and 50 uL of binding buffer and testing compounds were added. 50 μL of diluted αvβ6 (0.2 μg/mL in binding buffer) was added to wells (100 uL/well total) and plates incubated for 1 hr at room temperature. Wells were washed thrice with washing buffer (TBS, 0.05% Tween, 1 mM MnCl2) and plates were incubated with 100 μL/well of a 1:12500) dilution of streptavidin-horseradish peroxidase conjugate (Thermo Fisher Scientific) in binding buffer for 20 min at room temperature. Bound protein was detected using the substrate TMB. The IC50 values for testing compounds were calculated by Levenberg-Marquardt four parameter fitting logistics.

Data on 21 compounds can be found in patent US20240208968A1, “ALPHA V BETA 6 AND ALPHA V BETA 1 INTEGRIN INHIBITORS AND USES THEREOF” (DiCE Molecules SV, Inc., priority 2021, published 2024).

Where a name gives a salt, the structure may show the parent alone.

αvβ1, sequence (P06756 31-992 limits assumed): as the sequence (P06756 31-992 limits assumed) above
αvβ1, sequence (P05556 21-728 limits assumed): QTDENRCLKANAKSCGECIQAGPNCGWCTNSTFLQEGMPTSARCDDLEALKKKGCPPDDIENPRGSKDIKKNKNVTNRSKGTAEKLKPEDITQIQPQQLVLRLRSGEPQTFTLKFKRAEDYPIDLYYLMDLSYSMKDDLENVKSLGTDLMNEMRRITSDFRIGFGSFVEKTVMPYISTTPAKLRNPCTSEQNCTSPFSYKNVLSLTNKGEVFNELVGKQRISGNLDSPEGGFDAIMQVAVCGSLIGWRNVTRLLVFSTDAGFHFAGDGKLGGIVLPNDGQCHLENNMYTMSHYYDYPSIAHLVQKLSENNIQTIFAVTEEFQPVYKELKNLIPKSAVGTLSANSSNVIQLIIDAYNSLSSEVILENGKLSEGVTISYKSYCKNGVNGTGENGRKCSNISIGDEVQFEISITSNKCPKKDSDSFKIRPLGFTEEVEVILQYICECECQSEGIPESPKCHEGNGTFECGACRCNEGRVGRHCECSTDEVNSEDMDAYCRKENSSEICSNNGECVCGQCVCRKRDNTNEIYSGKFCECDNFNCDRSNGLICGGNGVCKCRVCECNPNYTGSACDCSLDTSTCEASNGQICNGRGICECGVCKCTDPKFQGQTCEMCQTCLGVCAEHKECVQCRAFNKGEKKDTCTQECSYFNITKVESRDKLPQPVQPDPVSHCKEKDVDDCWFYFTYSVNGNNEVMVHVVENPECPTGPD

`O=C(O)C[C@H](NC(=O)[C@@H]1CCCN(CCCc2ccc3c(n2)NCCC3)C1)c1cccc(C(F)(F)F)c1` (single isomer, unassigned) [Compound 203-A, hydrochloride]: the IC50 in assay [1] is more than 1000 nM; in assay [2], 100 to 1000 nM.
The like results for `O=C(O)C[C@@H](NC(=O)[C@@H]1CCCN(CCCc2ccc3c(n2)NCCC3)C1)c1cccc(C(F)(F)F)c1` (single isomer, unassigned) [Compound 203-B, hydrochloride] were, in that order, less than 100 nM and less than 100 nM.
Compound `CC1(C)CN(c2cccc([C@@H](NC(=O)[C@@H]3CCCN(CCCc4ccc5c(n4)NCCC5)C3)C(F)(F)C(=O)O)c2)CCO1` [Compound 300, (R)-3-(3-(2,2-dimethylmorpholino)phenyl)-2,2-difluoro-3-((R)-1-(3-(5,6,7,8-tetrahydro-1,8-naphthyridin-2-yl)propyl)piperidine-3-carboxamido)propanoic acid] displayed an IC50 in assay [1] of less than 100 nM.
`O=C(N[C@@H](CNC(=O)[C@@H]1CCCN(CCCc2ccc3c(n2)NCCC3)C1)C(=O)O)c1c(F)cccc1F` [Compound 310]: the IC50 in assay [2] fell in the range of 100 to 1000 nM.
With `O=C(NC[C@@H](C(=O)O)c1ccc(-c2ccccc2)cc1)[C@@H]1CCCN(CCCc2ccc3c(n2)NCCC3)C1` [Compound 343], in assay [2], the IC50 was less than 100 nM.
Turning to `O=C(N[C@@H](CNC(=O)[C@@H]1CCCN(CCCc2ccc3c(n2)NCCC3)C1)C(=O)O)c1cccc(C2CC2)c1` [Compound 370], the IC50 in assay [2] is less than 100 nM.
`CC(C)CNC(=O)[C@@H]1CCCC[C@H]1C(=O)N[C@@H](CNC(=O)[C@@H]1CCCN(CCCc2ccc3c(n2)NCCC3)C1)C(=O)O` [Compound 526] came in with a half-maximal inhibitory concentration (IC50) in assay [1] of less than 100 nM.
On the same count and under the same terms, next, `O=C(O)C[C@H](NC(=O)[C@@H]1CCCN(CCCc2ccc3c(n2)NCCC3)C1)c1cccc(-n2cccn2)c1` [Compound 537]: less than 100 nM.
Consider `O=C(Cc1ccccc1Cl)N[C@@H](CNC(=O)[C@@H]1CCCN(CCCc2ccc3c(n2)NCCC3)C1)C(=O)O` [Compound 545], for which the half-maximal inhibitory concentration (IC50) in assay [2] is less than 100 nM.
Same read-out and setting: next, `O=C(N[C@@H](CNC(=O)[C@@H]1CCCN(CCCc2ccc3c(n2)NCCC3)C1)C(=O)O)c1ccc2c(c1)CCC2` [Compound 548]: less than 100 nM; `O=C(Cc1ccccc1)N[C@@H](CNC(=O)[C@@H]1CCCN(CCCc2ccc3c(n2)NCCC3)C1)C(=O)O` [Compound 550]: less than 100 nM.
`O=C(O)C[C@H](NC(=O)[C@@H]1CCCN(CCCc2ccc3c(n2)NCCC3)C1)c1cc(F)cc(C2CC2)c1` [Compound 558] showed an IC50 in assay [1] of less than 100 nM.
Compound `O=C(NC[C@H](Nc1cc(-c2ccccc2)ncn1)C(=O)O)[C@@H]1CCCN(CCCc2ccc3c(n2)NCCC3)C1` [Compound 564] displayed an IC50 in assay [2] of less than 100 nM.
Compound `O=C(NC[C@H](Nc1ccccc1C1CC(F)(F)C1)C(=O)O)[C@@H]1CCCN(CCCc2ccc3c(n2)NCCC3)C1` [Compound 590] gave an IC50 in assay [2] of less than 100 nM.
Same read-out and setting: as for `O=C(NC[C@H](Nc1cccnc1C1CC(F)(F)C1)C(=O)O)[C@@H]1CCCN(CCCc2ccc3c(n2)NCCC3)C1` [Compound 591], the figure is less than 100 nM; as for `O=C(NC[C@H](Nc1cccc(C2CC(F)(F)C2)c1)C(=O)O)[C@@H]1CCCN(CCCc2ccc3c(n2)NCCC3)C1` [Compound 592], less than 100 nM.
Still for that read-out and setting: as for `CC1(C)CN(c2cccc([C@H](CNC(=O)[C@@H]3CCCN(CCCc4ccc5c(n4)NCCC5)C3)C(=O)O)c2)CCO1` [Compound 594], the figure is 100 to 1000 nM; as for `CC1(C)COCCN1c1cccc([C@H](CNC(=O)[C@@H]2CCCN(CCCc3ccc4c(n3)NCCC4)C2)C(=O)O)c1` [Compound 596], less than 100 nM.
`CC1(C)CCCN(c2cccc([C@H](CNC(=O)[C@@H]3CCCN(CCCc4ccc5c(n4)NCCC5)C3)C(=O)O)c2)C1` [Compound 598] returned a half-inhibitory concentration (IC50) in assay [2] of more than 1000 nM.
For the compound `CC1(C)CCN(c2cccc([C@H](CNC(=O)[C@@H]3CCCN(CCCc4ccc5c(n4)NCCC5)C3)C(=O)O)c2)CC1` [Compound 600], in assay [2], the IC50 fell in the range of 100 to 1000 nM.
Same read-out and setting: next, `C[C@@H]1CN(c2cccc([C@H](CNC(=O)[C@@H]3CCCN(CCCc4ccc5c(n4)NCCC5)C3)C(=O)O)c2)C[C@H](C)O1` [Compound 602]: 100 to 1000 nM.
